Target: T1, recombinant M. suis sPPase (rPPase) (Mycoplasma suis, UniProt C4RA40)
T1 construct: gene ppa; tetramer (80 kDa) inferred from immunoblot of native cells only
T1 sequence (C4RA40 1-164): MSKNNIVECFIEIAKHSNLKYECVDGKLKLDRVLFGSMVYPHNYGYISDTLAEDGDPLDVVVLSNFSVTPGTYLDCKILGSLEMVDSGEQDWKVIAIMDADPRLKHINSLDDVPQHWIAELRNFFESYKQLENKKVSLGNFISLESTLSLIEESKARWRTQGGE
Assay: phosphate release, molybdate/ascorbic acid colorimetry (Saheki)
Assay type: biochemical
Conditions: 50 mM MgCl2, pH 9.0, varied PPi (Figure 4E); standard assay: 5 mM Mg2+, 100 mM Tris pH 7.5, 1 mM PPi, 55 °C

O=P(O)(O)OP(=O)(O)O [PPi]
phosphate release, molybdate/ascorbic acid colorimetry (Saheki): Activity of M. suis rPPase using different PPi concentrations.
